Test results taken from the RepoRT retention time repository (doi:10.1021/acs.analchem.2c02893).

Experiment: RP, Thermo Scientific Acclaim RSLC 120 C18, 100 × 2.1 mm, 2.2 µm, 30 °C, 0.2 mL/min, estimated dead time 1.1 min; A: 90% water + 10% methanol + 0.01% formic acid + 5 mM ammonium formate, pH 3.61; B: methanol + 0.01% formic acid + 5 mM ammonium formate, pH 3.61; gradient (min/%B) 0/1 1/1 2/39 13/99.9 15/99.9 15.1/1 20.1/1
Settings: stereoisomer not certain

| SMILES | LC retention time [min] |
| --- | --- |
| CC(C)(c1ccc(OCC(O)CCl)cc1)c1ccc(OCC(O)CCl)cc1 (stereo unspecified) [Bisphenol<U+00A0>A bis(3-chloro-2-hydroxypropyl) ether] | 11.4 |
| CC(N)Cc1ccc(O)cc1 (stereo unspecified) [Amphetamine-P-hydroxy] | 2.98 |
| CCNc1nc(NC(C)(C)C)nc(SC)n1 [Terbutryn] | 10.2 |
| CCCCCCCCCCCCCC(=O)NCCC[N+](C)(C)CCCS(=O)(=O)O [Amidosulfobetaine-14] | 15 |
| COc1nc(C)nc(NC(=O)NS(=O)(=O)c2ccccc2CCC(F)(F)F)n1 [Prosulfuron] | 8.57 |
| CCOP(=S)(OCC)SCS(=O)C(C)(C)C (stereo unspecified) [Terbufos-sulfoxide] | 9 |
| CC1CCCCC1NC(=O)Nc1ccccc1 (stereo unspecified) [Siduron] | 9.37 |
| c1cc2c(cc1CN1CCNCC1)OCO2 [Piperazine -1-Piperonyl] | 4.22 |
| CCCC(C)(COC(N)=O)COC(=O)NC(C)C (stereo unspecified) [Carisoprodol] | 7.99 |
| CC(C)N(CCc1c[nH]c2cccc(O)c12)C(C)C [DIPT- 4-OH] | 4.34 |
| CC(=O)Nc1ccc(N)cc1 [4`-Aminoacetanilide] | 2.27 |
| CNC(=O)N(C)c1nnc(C(C)(C)C)s1 [Tebuthiuron] | 7.25 |
| CC(C)OP(=O)(OC(C)C)SCc1ccccc1 [Iprobenfos] | 10.6 |
| CN1CCCCC(n2cc(C(=O)c3cccc4ccccc34)c3ccccc32)C1 (stereo unspecified) [AM-1220-Azepane] | 8.61 |
| CC12CCC3C(CCC4=CC(=O)CCC43C)C1CCC2=O (stereo unspecified) [A4 (4-androsten-3 17-dione)] | 9.36 |
| COc1cc(OC)nc(NC(=O)NS(=O)(=O)c2c(-c3nnn(C)n3)cnn2C)n1 [Azimsulfuron] | 7.62 |
| COC(=O)c1sccc1S(=O)(=O)NC(=O)Nc1nc(C)nc(OC)n1 [Thifensulfuron-methyl] | 6.24 |
| CCc1cnc(C2=NC(C)(C(C)C)C(=O)N2)c(C(=O)O)c1 (stereo unspecified) [Imazethapyr] | 5.6 |
| CCC(NC)C(=O)c1ccc(C)cc1 (stereo unspecified) [Buphedrone-4-Methyl] | 5.04 |
| COCC(=O)N(c1c(C)cccc1C)N1CCOC1=O [Oxadixyl] | 6.29 |
| CC(=O)CCCCn1c(=O)c2c(ncn2C)n(C)c1=O [Pentoxifylline] | 5.23 |
| COc1ncc(F)c2nc(S(=O)(=O)Nc3c(F)cccc3F)nn12 [Florasulam] | 5.75 |
| O=C(c1cccc2ccccc12)c1nn(CCCCCF)c2ccccc12 [THJ-2201] | 11.9 |
| CC=C1N(C)C(C)CC1(c1ccccc1)c1ccccc1 (stereo unspecified) [EDDP] | 6.38 |

| SMILES | LC retention time [min] |
| --- | --- |
| CN=C1CN(O)C(c2ccccc2)=c2cc(Cl)ccc2=N1 [Chlordiazepoxide] | 8.79 |
| O=C(O)C(c1ccccc1)C1CCCCN1 (stereo unspecified) [Ritalinic acid] | 4.61 |
| CC1(C)CON(Cc2ccccc2Cl)C1=O [Clomazone  (Command)] | 8.89 |
| CON=C(C(=O)OC)c1ccccc1CON=C(C)c1cccc(C(F)(F)F)c1 [Trifloxystrobin] | 11.6 |
| Cc1ccccc1CN1CCN(CCOC(c2ccccc2)c2ccccc2Cl)CC1 (stereo unspecified) [Chlorbenzoxamine] | 10.8 |
| COP(=O)(OC)OC(=CCl)c1cc(Cl)c(Cl)cc1Cl [Tetrachlorvinphos (Stirofos)] | 10.6 |
| CSc1nc(N=[N+]=[N-])nc(NC(C)C)n1 [Aziprotryne] | 9.71 |
| CN(C)c1nc(N(C)C)nc(N(C)C)n1 [Altretamine] | 10.1 |
| CN1CCCC(n2nc(Cc3ccc(Cl)cc3)c3ccccc3c2=O)CC1 (stereo unspecified) [Azelastine] | 7.59 |
| CN(C)C(=O)Nc1ccc(Cl)cc1 [Monuron] | 6.9 |
| OC(c1ccc(Cl)cc1)(c1cncnc1)c1ccccc1Cl (stereo unspecified) [Fenarimol] | 10.1 |
| Nc1ccc(Cl)cc1C(=O)c1ccccc1 [Benzophenone- 2-Amino-5-chloro] | 10.5 |
| O=C(O)CCCOc1ccc(Cl)cc1Cl [2.4-DB] | 10 |
| N#Cc1nn(-c2c(Cl)cc(C(F)(F)F)cc2Cl)c(N)c1S(=O)C(F)(F)F (stereo unspecified) [Fipronil] | 10.5 |
| CCC(C(=O)c1ccc2c(c1)OCO2)N(C)C (stereo unspecified) [Dibutylone] | 4.38 |
| CNC(=O)Oc1cc(C)c(SC)c(C)c1 [Methiocarb (Mercaptodimethur)] | 9.34 |
| CN(C)C(=O)OC1N=C(c2ccccc2)c2cc(Cl)ccc2N(C)C1=O (stereo unspecified) [Camazepam] | 10 |
| Cc1nc(N(C)C)nc(OC(=O)N(C)C)c1C [Pirimicarb] | 7.77 |
| O=C(NC(=O)c1c(F)cccc1F)Nc1ccc(Oc2ccc(C(F)(F)F)cc2Cl)cc1F [Flufenoxuron] | 12.9 |
| O=c1[nH]c2ccccc2n1CCCN1CCC(n2c(=O)[nH]c3cc(Cl)ccc32)CC1 [Domperidone] | 6.27 |
| CC1(C)CCC(=Cc2ccc(Cl)cc2)C1(O)Cn1cncn1 (stereo unspecified) [Triticonazole] | 10.1 |
| O=C1CN=C(c2ccccn2)c2cc(Br)ccc2N1 [Bromazepam] | 7.28 |
| CCNCC(O)c1cccc(O)c1 (stereo unspecified) [Etilefrine] | 2.66 |

Now from value to molecule:

| LC retention time [min] | SMILES |
| --- | --- |
| 12.8 | CCC(C)N(C(=O)SCc1ccccc1)C(C)CC (stereo unspecified) [Tiocarbazil] |
| 11.3 | CCC(=O)OCC(=O)C1(OC(=O)CC)C(C)CC2C3CCC4=CC(=O)C=CC4(C)C3(F)C(O)CC21C (stereo unspecified) [Betamethasone dipropionate] |
| 6.63 | O=C(OCC(O)CO)c1ccccc1Nc1ccnc2cc(Cl)ccc12 (stereo unspecified) [Glaphenine] |
| 13.2 | CCCC(NC(C)C(=O)N1C(C(=O)O)CC2CCCCC21)C(=O)OCC (stereo unspecified) [Perindopril] |
| 7.89 | CCc1cccc(C)c1N1C(=O)COCC1C (stereo unspecified) [Metolachlor-morpholinon] |
| 11.3 | O=C(c1cccc(F)c1)N1CCC(N2CCN(c3ccccc3)CC2)CC1 [CC-2201] |
| 3.16 | CCN(CC)C(=O)N1CCN(C)CC1 [Carbamazine-Diethyl] |
| 9.61 | CC(=O)OCCN1CCN(CCCN2c3ccccc3Sc3ccc(Cl)cc32)CC1 [Thiopropazate] |
| 6.86 | CC(C1=C(CCN(C)C)Cc2ccccc21)c1ccccn1 (stereo unspecified) [Dimetindene] |
| 3.97 | CN=C(NC)NCc1ccccc1 [Bethanidine] |
| 10.4 | CCCCCC(=O)c1ccc(O)cc1O [Caproylresorcinol] |
| 8.09 | Cc1ccc(S(=O)(=O)NC(=O)NN2CCCCCC2)cc1 [Tolazamide] |
| 9.09 | Cc1c(Nc2ncccc2C(=O)O)cccc1C(F)(F)F [Flunixin] |
| 11.3 | CCCCCCCCCCCC[N+](CCO)(CCO)Cc1ccccc1 [Benzoxonium] |
| 4.49 | Cc1cc(=O)[nH]c(C(C)C)n1 [Pyrimidinol] |
| 7.83 | CCCOc1ccc(S(=O)(=O)NCCC2CCCN2C)cc1-c1nc2c(CCC)nn(C)c2c(=O)[nH]1 (stereo unspecified) [Udenafil] |
| 4.29 | CC(C)(C)NCC(O)COc1cccc2c1CC(O)C(O)C2 (stereo unspecified) [Nadolol] |
| 8.18 | CCCc1nn(C)c2c(=O)[nH]c(-c3cc(C(=O)CN4CCN(CC)C(=O)C4=O)ccc3OCC)nc12 [Dioxohongdenafil] |
| 8.42 | O=c1[nH]c2ccccc2n1CCCN1CCN(C(c2ccccc2)c2ccccc2)CC1 [Oxatomide] |
| 5.08 | NC(CC(=O)N1CCn2c(nnc2C(F)(F)F)C1)Cc1cc(F)c(F)cc1F (stereo unspecified) [Sitagliptin] |

| LC retention time [min] | SMILES |
| --- | --- |
| 4.66 | O=C(O)c1ccccc1C(=O)Nc1ccc(S(=O)(=O)Nc2nccs2)cc1 [Sulfathiazole-Phthalyl] |
| 6.89 | CCN(CC)C(=O)C(C#N)=Cc1cc(O)c(O)c([N+](=O)[O-])c1 [Entacapon] |
| 6.11 | NC(=O)C1(N2CCCCC2)CCN(CCCC(=O)c2ccc(F)cc2)CC1 [Pipamperone] |
| 4.11 | NS(=O)(=O)c1ccc(N2CCCCS2(=O)=O)cc1 [Sulthiame] |
| 5.06 | NS(=O)(=O)c1cc(C2(O)NC(=O)c3ccccc32)ccc1Cl (stereo unspecified) [Chlorthalidone] |
| 1.67 | CC1(C)CC(N)CC(C)(CN)C1 (stereo unspecified) [Isophorone diamine] |
| 5.04 | CCC12CCCN3CCc4c(n(c5ccccc45)C(O)(C(=O)OC)C1)C32 (stereo unspecified) [Vincamine] |
| 7.13 | CNC(=O)Nc1nc2ccccc2s1 [Benzthiazuron] |
| 13.3 | CCCOc1nc2ccc(I)cc2c(=O)n1CCC [Proquinazid] |
| 8.79 | O=C(O)COCCN1CCN(C(c2ccccc2)c2ccc(Cl)cc2)CC1 (stereo unspecified) [Cetirizine] |
| 10.5 | COC(=O)C(C)Oc1ccc(Cl)cc1Cl (stereo unspecified) [Dichlorprop-methyl] |
| 4.48 | NC(=O)c1c(Cl)cccc1Cl [Dichlorobenzamide] |
| 8.25 | COC(=O)Nc1nc2ccc(C(=O)c3ccccc3)cc2[nH]1 [Mebendazole] |
| 9.36 | CCCOC(C(=O)OC1CCN(C)CC1)(c1ccccc1)c1ccccc1 [Propiverine] |
| 10.1 | CCCCc1oc2ccc(NS(C)(=O)=O)cc2c1C(=O)c1ccc(OCCCN(CCCC)CCCC)cc1 [Dronedarone] |
| 5.59 | Cc1cccc(C)c1OCC(C)N (stereo unspecified) [Mexiletine] |
| 2.87 | NC(=O)c1ccccc1C(=O)O [Phthalamic acid] |
| 4.91 | C=C1CC23CC1(O)CCC2C12C=CC(O)C(C)(C(=O)O1)C2C3C(=O)O (stereo unspecified) [Gibberellic acid] |
| 9.25 | Clc1ccccc1CN1CCc2sccc2C1 [Ticlopidine] |
